Test results: patent US9309248B2, “Azaindolines” (Hoffmann-La Roche Inc., priority 2012, dated 2016)

How the values were obtained:
[1] = target: T1, BIR2 domain of XIAP (Homo sapiens, UniProt P98170, C202A/C213G); test: TR-FRET assay for BIR2 (inhibition of binding of XIAP BIR2 domain to SMAC-derived Peptide A); details: 6x Histidine-tagged BIR2 domain (amino acids 124-240 of XIAP) 10 nM, Peptide A 20 nM
T1 construct: 6× Histidine-tagged BIR2 domain, corresponding to amino acids 124-240 of XIAP
T1 sequence (P98170 with tags, fused parts or gaps C202A/C213G): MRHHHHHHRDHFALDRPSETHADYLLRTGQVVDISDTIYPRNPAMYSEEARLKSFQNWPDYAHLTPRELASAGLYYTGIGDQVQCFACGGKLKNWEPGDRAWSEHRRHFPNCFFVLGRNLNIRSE
Protocol: (§1) TR-FRET Assay for BIR2 and BIR3
(§2) The ability of a test compound to inhibit the binding of BIR2 and/or BIR3 domains of the XIAP protein to Peptide A (a SMAC-derived peptide described below) evidences that the test compound acts as a SMAC-mimetic resulting in reactivation of a cell's apoptotic pathway.
(§3) The peptides were labeled with the fluorescent tags FITC or TAMRA and Kd values were determined by fluorescence polarization assay. […] The peptide sequence was derivatized with biotin to provide […]-(ε-biotin)-OH 1:2 TFA as the substrate for the TR-FRET assay.
The XIAP protein sequence was obtained from the SWISS-PROT protein sequence database and the BIR2 and BIR3 domains were derived from that. The sequence of the BIR2 domain used for the TR-FRET assay is […].
Time-resolved fluorescence resonance energy transfer (TR-FRET) signals were measured 1 hour later at room temperature. Test compound potency was assessed at 10 serially diluted concentrations. Percentage of inhibition at each concentration was determined to generate an IC50 value for each test compound.

[2] = target: T2, BIR3 domain of XIAP (Homo sapiens, UniProt P98170); test: TR-FRET assay for BIR3 (inhibition of binding of XIAP BIR3 domain to SMAC-derived Peptide A); details: 6x Histidine-tagged BIR3 domain (amino acids 241-356 of XIAP) 10 nM, Peptide A 20 nM
T2 construct: BIR3 domain, corresponding to amino acids 241-356 of XIAP
T2 sequence (P98170 with tags, fused parts or gaps): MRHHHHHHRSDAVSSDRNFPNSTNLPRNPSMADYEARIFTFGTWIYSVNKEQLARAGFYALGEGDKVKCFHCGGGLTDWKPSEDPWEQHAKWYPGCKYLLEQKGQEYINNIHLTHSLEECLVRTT
Protocol: as §1, §2, §3
The sequence of the BIR3 domain used for the TR-FRET assay is […]
Ten nanomolar of 6× Histidine-tagged BIR2 domain, corresponding to amino acids 124-240 of XIAP, or BIR3 domain, corresponding to amino acids 241-356 of XIAP, was mixed with 20 nM of the peptide […]-(z-biotin)-OH 1:2 TFA, in the presence of 50 mM Tris-Cl, pH 7.5, 100 mM NaCl, 1 mM dithiothreitol (DTT) and 0.1 mg/mL bovine serum albumin (BSA). Following a […] incubation at 37° C., Europium-Streptavidin and Allophycocyanin conjugated anti-Histidine antibody were added to a final concentration of 1.5 nM and 15 nM, respectively. Time-resolved fluorescence resonance energy transfer (TR-FRET) signals were measured 1 hour later at room temperature. Test compound potency was assessed at 10 serially diluted concentrations. Percentage of inhibition at each concentration was determined to generate an IC50 value for each test compound.

| IC50 [1] | IC50 [2] | Structure (SMILES) |
| --- | --- | --- |
| 1360 nM | > 54800 nM | CN[C@@H](C)C(=O)N[C@H](C(=O)N1c2ncccc2C[C@@H]1C(=O)Nc1cnccc1C)C(C)C [Example 20, (R)-1-[(S)-3-Methyl-2-((S)-2-methylamino-propionylamino)-butyryl]-2,3-dihydro-1H-pyrrolo[2,3-b]pyridine-2-carboxylic acid (4-methyl-pyridin-3-yl)-amide] |
| 275 nM | > 54800 nM | CN[C@@H](C)C(=O)N[C@H](C(=O)N1c2ncccc2C[C@H]1C(=O)Nc1ccc(F)cc1)C(C)C [Example 21, (S)-1-[(S)-3-Methyl-2-((S)-2-methylamino-propionylamino)-butyryl]-2,3-dihydro-1H-pyrrolo[2,3-b]pyridine-2-carboxylic acid (4-fluoro-phenyl)-amide] |
| 103 nM | > 54800 nM | CN[C@@H](C)C(=O)N[C@H](C(=O)N1c2ncccc2C[C@H]1C(=O)Nc1ccc(F)cc1C)C(C)C [Example 22, (S)-1-[(S)-3-Methyl-2-((S)-2-methylamino-propionylamino)-butyryl]-2,3-dihydro-1H-pyrrolo[2,3-b]pyridine-2-carboxylic acid (4-fluoro-2-methyl-phenyl)-amide] |
| 427 nM | > 54800 nM | CN[C@@H](C)C(=O)N[C@H](C(=O)N1c2ncccc2C[C@H]1C(=O)Nc1cc(F)cc(F)c1)C(C)C [Example 23, (S)-1-[(S)-3-Methyl-2-((S)-2-methylamino-propionylamino)-butyryl]-2,3-dihydro-1H-pyrrolo[2,3-b]pyridine-2-carboxylic acid (3,5-difluoro-phenyl)-amide] |
| 774 nM | 9210 nM | CN[C@@H](C)C(=O)N[C@H](C(=O)N1c2ncccc2C[C@H]1C(=O)NCc1ccc(F)cc1)C(C)C [Example 24, (S)-1-[(S)-3-Methyl-2-((S)-2-methylamino-propionylamino)-butyryl]-2,3-dihydro-1H-pyrrolo[2,3-b]pyridine-2-carboxylic acid 4-fluoro-benzylamide] |
| 25.4 nM | > 54800 nM | CN[C@@H](C)C(=O)N[C@H](C(=O)N1c2ncccc2C[C@H]1C(=O)Nc1ccccc1Cl)C(C)C [Example 25, (S)-1-[(S)-3-Methyl-2-((S)-2-methylamino-propionylamino)-butyryl]-2,3-dihydro-1H-pyrrolo[2,3-b]pyridine-2-carboxylic acid (2-chloro-phenyl)-amide] |
| 61 nM | 52300 nM | CN[C@@H](C)C(=O)N[C@H](C(=O)N1c2ncccc2C[C@H]1C(=O)Nc1ccccc1C(=O)c1ccccc1)C(C)C [Example 26, (S)-1-[(S)-3-Methyl-2-((S)-2-methylamino-propionylamino)-butyryl]-2,3-dihydro-1H-pyrrolo[2,3-b]pyridine-2-carboxylic acid (2-benzoyl-phenyl)-amide] |
| 2110 nM | > 54800 nM | CN[C@@H](C)C(=O)N[C@H](C(=O)N1c2ncccc2C[C@@H]1C(=O)Nc1ccccc1C(=O)c1ccccc1)C(C)C [Example 27, (R)-1-[(S)-3-Methyl-2-((S)-2-methylamino-propionylamino)-butyryl]-2,3-dihydro-1H-pyrrolo[2,3-b]pyridine-2-carboxylic acid (2-benzoyl-phenyl)-amide] |
| 14.4 nM | > 54800 nM | CN[C@@H](C)C(=O)N[C@H](C(=O)N1c2ncccc2C[C@H]1C(=O)Nc1c(F)cccc1F)C(C)C [Example 28, (S)-1-[(S)-3-Methyl-2-((S)-2-methylamino-propionylamino)-butyryl]-2,3-dihydro-1H-pyrrolo[2,3-b]pyridine-2-carboxylic acid (2,6-difluoro-phenyl)-amide] |
| 421 nM | > 54800 nM | CN[C@@H](C)C(=O)N[C@H](C(=O)N1c2ncccc2C[C@@H]1C(=O)Nc1c(F)cccc1F)C(C)C [Example 29, (R)-1-[(S)-3-Methyl-2-((S)-2-methylamino-propionylamino)-butyryl]-2,3-dihydro-1H-pyrrolo[2,3-b]pyridine-2-carboxylic acid (2,6-difluoro-phenyl)-amide] |
| 158 nM | 46800 nM | CN[C@@H](C)C(=O)N[C@H](C(=O)N1c2ncccc2C[C@H]1C(=O)Nc1ccccc1Oc1ccccc1)C(C)C [Example 30, (S)-1-[(S)-3-Methyl-2-((S)-2-methylamino-propionylamino)-butyryl]-2,3-dihydro-1H-pyrrolo[2,3-b]pyridine-2-carboxylic acid (2-phenoxy-phenyl)-amide] |
| 11700 nM | > 54800 nM | CN[C@@H](C)C(=O)N[C@H](C(=O)N1c2ncccc2C[C@@H]1C(=O)Nc1ccccc1Oc1ccccc1)C(C)C [Example 31, (R)-1-[(S)-3-Methyl-2-((S)-2-methylamino-propionylamino)-butyryl]-2,3-dihydro-1H-pyrrolo[2,3-b]pyridine-2-carboxylic acid (2-phenoxy-phenyl)-amide] |
| 9.59 nM | > 54800 nM | CN[C@@H](C)C(=O)N[C@H](C(=O)N1c2ncccc2C[C@H]1C(=O)Nc1c(C)cccc1F)C(C)C [Example 32, (S)-1-[(S)-3-Methyl-2-((S)-2-methylamino-propionylamino)-butyryl]-2,3-dihydro-1H-pyrrolo[2,3-b]pyridine-2-carboxylic acid (2-fluoro-6-methyl-phenyl)-amide] |
| 44.9 nM | > 54800 nM | CN[C@@H](C)C(=O)N[C@H](C(=O)N1c2ncccc2C[C@H]1C(=O)Nc1c(C)cccc1C)C(C)C [Example 33, (S)-1-[(S)-3-Methyl-2-((S)-2-methylamino-propionylamino)-butyryl]-2,3-dihydro-1H-pyrrolo[2,3-b]pyridine-2-carboxylic acid (2,6-dimethyl-phenyl)-amide] |
| 137 nM | > 54800 nM | CN[C@@H](C)C(=O)N[C@H](C(=O)N1c2ncccc2C[C@H]1c1nc2ccccc2[nH]1)C(C)C [Example 34, (S)—N—{(S)-1-[(S)-2-(1H-Benzoimidazol-2-yl)-2,3-dihydro-pyrrolo[2,3-b]pyridine-1-carbonyl]-2-methyl-propyl}-2-methylamino-propionamide] |
| 37700 nM | > 54800 nM | CN[C@@H](C)C(=O)N[C@H](C(=O)N1c2ncccc2C[C@@H]1c1nc2ccccc2[nH]1)C(C)C [Example 35, (S)—N—{(S)-1-[(R)-2-(1H-Benzoimidazol-2-yl)-2,3-dihydro-pyrrolo[2,3-b]pyridine-1-carbonyl]-2-methyl-propyl}-2-methylamino-propionamide] |
| 12.7 nM | > 54800 nM | CN[C@@H](C)C(=O)N[C@H](C(=O)N1c2ncccc2C[C@H]1C(=O)Nc1ccccc1F)C(C)C [Example 36, (S)-1-[(S)-3-Methyl-2-((S)-2-methylamino-propionylamino)-butyryl]-2,3-dihydro-1H-pyrrolo[2,3-b]pyridine-2-carboxylic acid (2-fluoro-phenyl)-amide] |
| 323 nM | > 54800 nM | CN[C@@H](C)C(=O)N[C@H](C(=O)N1c2ncccc2C[C@H]1C(=O)NCC(F)(F)F)C(C)C [Example 37, (S)-1-[(S)-3-Methyl-2-((S)-2-methylamino-propionylamino)-butyryl]-2,3-dihydro-1H-pyrrolo[2,3-b]pyridine-2-carboxylic acid (2,2,2-trifluoro-ethyl)-amide] |
| 237 nM | > 54800 nM | CN[C@@H](C)C(=O)N[C@H](C(=O)N1c2ncccc2C[C@H]1C(=O)Nc1cnccc1C)C(C)C [Example 38, (S)-1-[(S)-3-Methyl-2-((S)-2-methylamino-propionylamino)-butyryl]-2,3-dihydro-1H-pyrrolo[2,3-b]pyridine-2-carboxylic acid (4-methyl-pyridin-3-yl)-amide] |
| 226 nM | > 54800 nM | CN[C@@H](C)C(=O)N[C@H](C(=O)N1c2ncccc2C[C@H]1C(=O)Nc1cccc(F)c1)C(C)C [Example 39, (S)-1-[(S)-3-Methyl-2-((S)-2-methylamino-propionylamino)-butyryl]-2,3-dihydro-1H-pyrrolo[2,3-b]pyridine-2-carboxylic acid (3-fluoro-phenyl)-amide] |
| 104 nM | > 54800 nM | CCc1ccccc1NC(=O)[C@@H]1Cc2cccnc2N1C(=O)[C@@H](NC(=O)[C@H](C)NC)C(C)C [Example 40, (S)-1-[(S)-3-Methyl-2-((S)-2-methylamino-propionylamino)-butyryl]-2,3-dihydro-1H-pyrrolo[2,3-b]pyridine-2-carboxylic acid (2-ethyl-phenyl)-amide] |
